In assay [1] the target is PDE4 enzyme (U937 lysate or recombinant hPDE4). Briefly: In vitro inhibition of PDE4 phosphodiesterases ([3H]cAMP SPA enzyme assay, Method A). Type of assay: biochemical, human. Particulars: Biological Example 1, Method A. As to the method:
PDE4 U937 cytoplasmic extracts were prepared by a modified procedure of the assay described in MacKenzie, S. J. and Houslay, M. D., “Action of rolipram on specific PDE4 cAMP phosphodiesterase isoforms and on the phosphorylation of cAMP-response-element-binding protein (CREB) and p38 mitogen-activated protein (MAP) kinase in U937 monocytic cells”, Biochem J. (2000), 347(Pt 2):571-8, by lysis of U937 cells (ATCC: Catalogue No. CRL-159) in M-PER Lysis buffer (Pierce) containing 10% protease inhibitor cocktail (Sigma). The cell lysates were then centrifuged at 30,000 rpm for 15 minutes at 4° C. The supernatants were aliquoted and stored at −80° C.
An alternative source of PDE4 enzymes was from recombinant human PDE4 obtained from baculovirus-SF9 cells expression system. cDNA containing PDE4D1 was cloned into a baculovirus vector, insect cells (SF9) were then infected and cells cultured to express the PDE4 protein. The cells were lysed and used directly in assay or partially purified using standard procedures. The process can be used for other PDE4 and PDE enzymes.
Compounds of the invention were evaluated for inhibitory activity against PDE4 enzymes by the following assay Method A or B.
PDE4 assay based on modified procedure of Phosphodiesterase [^3H]cAMP SPA Enzyme Assay (Amersham Biosciences, code TRKQ 7090). In this assay, PDE4 enzymes converts [^3H]cAMP to [^3H]5′-AMP. The assay is quenched by the addition of SPA yttrium silicate beads which preferentially bind linear nucleotides over cyclic nucleotides in the presence of zinc sulphate.
Reactions were performed in duplicate by the addition of 10 μl PDE4 enzyme (U937 lysate or recombinant hPDE4) to 20 μL of assay mix and 20 μL of test compounds in Isoplates (Wallac) for 30 minutes, at 37° C. The final assay mixture contained: 50 mM Tris (pH 7.5), 8.3 mM MgCl2, 1.7 mM EGTA and [^3H]cAMP (0.025 μCi) (Amersham). Assay was terminated by addition 25 μL SPA beads. The plate was sealed, shaken for 1 minute and then allowed to settle 30 minutes and the cpm determined using a Wallac Micobeta.
PDE4 enzyme was added in quantities such that less than 15% of substrate was consumed (linear assay conditions).

Assay [2] concerns the target T1, human platelet PDE3 (Homo sapiens, UniProt Q14432).
T1 construct: tissue AllCells, LLC PB027; host or cells: human platelets, 70,000 g supernatant of sonicated lysate
Briefly: In vitro inhibition of PDE3 phosphodiesterases (platelet extract, [3H]cAMP SPA). Format: biochemical. Particulars: cAMP as substrate. The method, then: Compounds of the invention were evaluated for inhibitory activity against human platelet PDE3 to ascertain PDE3 inhibition. The PDE3 assay was performed using platelet cell extract as described above in Biological Example 1 for the PDE4 assay. Platelets are known contain PDE's 2, 3 and 5. However […] utilize cGMP, so in an assay with cAMP as a substrate they are not detected.
Human platelet cytoplasmic extracts were prepared by modified method of Keller et al. Human platelets (AllCells, LLC; Cat. No. PB027) were sonicated in supplemented lysis buffer. Supplemented lysis buffer consisted of 20 mM Tris, 1 mM EDTA, 1 mM DTT, 0.25 M sucrose, 1 mM benzamidine, 1 μg/mL Leupeptin, 1 μM Pepstatin, and 0.1 mM PMSF, pH 7.5. The platelet lysates were centrifuged at 70,000 g for 30 minutes at 4° C. The supernatants were aliquoted and stored at −80° C.
Reactions were performed in duplicate by the addition of 10 μL PDE3 lysate to 20 μL of assay mix and 20 μL of test compounds in Isoplates (Wallac) for 30 minutes, at 37° C. […] The plate was sealed, shaken for 1 minute and then allowed to settle 30 minutes and the cpm determined using a Wallac Micobeta.
PDE3 enzyme was added in quantities such that less than 15% of substrate was consumed (linear assay conditions).

Consider 15 compounds from US20100168170A1, “Piperidinones Useful in the Treatment of Inflammation” (priority 2007, published 2010).

T1 sequence (Q14432 whole entry): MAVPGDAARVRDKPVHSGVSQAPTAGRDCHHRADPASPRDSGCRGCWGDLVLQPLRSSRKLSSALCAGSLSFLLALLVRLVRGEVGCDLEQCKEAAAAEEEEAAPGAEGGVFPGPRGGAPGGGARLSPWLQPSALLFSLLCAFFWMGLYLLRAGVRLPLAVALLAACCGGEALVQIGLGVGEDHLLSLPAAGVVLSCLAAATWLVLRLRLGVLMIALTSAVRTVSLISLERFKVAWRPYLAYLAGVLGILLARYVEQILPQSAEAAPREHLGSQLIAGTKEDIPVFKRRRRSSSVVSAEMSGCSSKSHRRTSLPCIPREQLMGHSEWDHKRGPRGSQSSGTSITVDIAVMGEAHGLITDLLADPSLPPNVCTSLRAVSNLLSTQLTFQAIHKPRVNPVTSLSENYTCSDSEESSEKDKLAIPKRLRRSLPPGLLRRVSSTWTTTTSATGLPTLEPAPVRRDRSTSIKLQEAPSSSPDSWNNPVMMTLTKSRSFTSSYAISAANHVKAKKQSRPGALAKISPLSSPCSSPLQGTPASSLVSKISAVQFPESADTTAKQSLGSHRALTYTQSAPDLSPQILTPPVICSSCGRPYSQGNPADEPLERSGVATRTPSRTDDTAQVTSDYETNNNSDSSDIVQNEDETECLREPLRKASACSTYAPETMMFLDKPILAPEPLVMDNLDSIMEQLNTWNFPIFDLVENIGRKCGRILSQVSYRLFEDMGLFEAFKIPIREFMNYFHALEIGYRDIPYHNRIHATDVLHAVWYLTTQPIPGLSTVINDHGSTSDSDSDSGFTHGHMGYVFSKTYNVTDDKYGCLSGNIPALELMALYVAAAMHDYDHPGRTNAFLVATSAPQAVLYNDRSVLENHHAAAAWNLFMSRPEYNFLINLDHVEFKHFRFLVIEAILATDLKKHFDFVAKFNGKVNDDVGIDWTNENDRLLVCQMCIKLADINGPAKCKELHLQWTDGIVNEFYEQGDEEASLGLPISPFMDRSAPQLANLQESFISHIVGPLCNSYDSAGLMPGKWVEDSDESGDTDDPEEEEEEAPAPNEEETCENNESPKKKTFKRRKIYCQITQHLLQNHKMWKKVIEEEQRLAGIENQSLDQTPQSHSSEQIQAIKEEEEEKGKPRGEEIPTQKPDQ

On to `CCOc1cc([C@H]2CNC(=O)C(Cc3ccc(F)cc3)(Cc3ccc(F)cc3)C2)ccc1OC` [(S)-5-(3-ethoxy-4-methoxyphenyl)-3,3-bis(4-fluorobenzyl)piperidin-2-one], for which the IC50 (as a rule, the concentration that inhibits the measured activity by half) in assay [1] was determined as 5080 nM.

As for `COc1cc(CC2C[C@@H](c3ccc(OC)c(OC4CCCC4)c3)CNC2=O)ccc1OC1CCCC1` (stereo partly drawn) [(5S)-3-(4-(cyclopentyloxy)-3-methoxybenzyl)-5-(3-(cyclopentyloxy)-4-methoxyphenyl)piperidin-2-one], the 50% inhibitory concentration (IC50) in assay [1] was determined as 379 nM. Take `COc1ccc(C2CNC(=O)C2)cc1OC1CCCC1` (stereo not drawn) [rolipram]: in assay [2], the “inhibition of PDE3 (assay specificity control)” value is “without effect”. On to `CCCCCCCOc1cc([C@H]2CNC(=O)C(Cc3ccccc3)C2)ccc1OC` (stereo partly drawn) [(5S)-3-benzyl-5-(3-(heptyloxy)-4-methoxyphenyl)piperidin-2-one], for which the half-maximal inhibitory concentration (IC50) in assay [1] was found to be 1280 nM. `COc1cc2c(cc1OC)-c1c/c(=N\c3c(C)cc(C)cc3C)n(C)c(=O)n1CC2` [trequinsin]: the “inhibition of PDE3 (assay specificity control)” value in assay [2] was “potent inhibitor”. With `COc1ccc([C@@H]2C[C@H](Cc3cccc(C)c3)C(=O)N(CC(C)C)C2)cc1OC1CCCC1` [(3R,5S)-5-(3-(cyclopentyloxy)-4-methoxyphenyl)-1-isobutyl-3-(3-methylbenzyl)-piperidin-2-one], in assay [1], the IC50 amounted to 6780 nM. Take `COc1cc(CC2C[C@@H](c3ccc(OC)c(-c4ccccc4)c3)CNC2=O)ccc1OC1CCCC1` (stereo partly drawn) [(5S)-3-(4-(cyclopentyloxy)-3-methoxybenzyl)-5-(6-methoxybiphenyl-3-yl)piperidin-2-one]: in assay [1], the IC50 was determined as 519 nM. Regarding `COc1ccc([C@H]2CNC(=O)[C@@H](Cc3cccc(OCc4ccccc4)c3)C2)cc1OC1CCCC1` [(3R,5S)-3-(3-(benzyloxy)benzyl)-5-(3-(cyclopentyloxy)-4-methoxyphenyl)piperidin-2-one], the IC50 in assay [1] came out at 189 nM. For `CCCNc1cccc(C[C@@H]2C[C@@H](c3ccc(OC)c(OC4CCCC4)c3)CNC2=O)c1` [(3S,5S)-5-(3-(cyclopentyloxy)-4-methoxyphenyl)-3-(3-(propylamino)benzyl)-piperidin-2-one], the concentration for half-maximal inhibition (IC50) in assay [1] is 604 nM. Turning to `COc1ccc([C@H]2CNC(=O)[C@H](Cc3ccc(F)c(F)c3)C2)cc1OC1CCCC1` [(3S,5S)-5-(3-(cyclopentyloxy)-4-methoxyphenyl)-3-(3,4-difluorobenzyl)piperidin-2-one], the IC50 in assay [1] turned out to be 101 nM. Turning to `COc1ccc([C@@H]2C[C@H](Cc3cccc(C)c3)C(=O)N(C(C)=O)C2)cc1OC1CCCC1` [(3R,5S)-1-acetyl-5-(3-(cyclopentyloxy)-4-methoxyphenyl)-3-(3-methylbenzyl)piperidin-2-one], the IC50 in assay [1] amounted to 1100 nM. Regarding `COc1ccc([C@H]2CNC(=O)[C@H](Cc3ccc(Oc4ccccc4)cc3)C2)cc1OC1CCCC1` [(3S,5S)-5-(3-(cyclopentyloxy)-4-methoxyphenyl)-3-(4-phenoxybenzyl)piperidin-2-one], the IC50 in assay [1] stood at 457 nM. The same measure, in the same setting: next, `COc1ccc([C@H]2CNC(=O)[C@@H](Cc3ccc(OCC(N)=O)cc3)C2)cc1OC1CCCC1` [2-(4-(((3R,5S)-5-(3-(cyclopentyloxy)-4-methoxyphenyl)-2-oxopiperidin-3-yl)methyl)phenoxy)acetamide]: 1340 nM; `COc1ccc([C@H]2CNC(=O)C(C(C)c3ccccc3)C2)cc1OC1CCCC1` (stereo partly drawn) [(5S)-5-(3-(cyclopentyloxy)-4-methoxyphenyl)-3-(1-phenylethyl)piperidin-2-one]: 1040 nM. Consider `COc1ccc([C@H]2CNC(=O)[C@H](CCCCCc3ccccc3)C2)cc1OC1CCCC1` [(3R,5S)-5-(3-(cyclopentyloxy)-4-methoxyphenyl)-3-(5-phenylpentyl)piperidin-2-one], for which, in assay [1], the IC50 amounted to 578 nM.
